# Measured values published in patent US20260053861A1, “CELL COMPOSITIONS AND METHODS OF USING THE SAME” (THE REGENTS OF THE UNIVERSITY OF CALIFORNIA, priority 2022, published 2026).
# Where a name gives a salt, the structure may show the parent alone. Read-outs that look alike come from different tables or passages of the source.
# Test system: hPSC-SCs
# [1] = HTS viability of hPSC-SCs in the presence of 30 mM glucose, Prestwick library, Table S4
Compound,z.score.t,z.score.t [1]
CCC1(C)CC(=O)NC(=O)C1 [Bemegride],0.3241,–
C[N+]1(C)CCC(OC(=O)C(O)(c2ccccc2)C2CCCC2)C1 (stereo not shown) [Glycopyrrolate],–,−0.1913
O=C(/C=C/c1ccc(O)c(O)c1)O[C@@H]1C[C@](O)(C(=O)O)C[C@@H](O)[C@H]1O [Chlorogenic acid],–,0.888
CC(=O)Nc1cc2ccccc2oc1=O [3-Acetamidocoumarin],–,−1.551
"CC(=O)NC(CC(=O)O)C(=O)O (racemic) [Aspartic acid, N-acetyl (R,S)]",–,0.006455
COc1cc2c(cc1O)[C@@H]1Cc3ccc(OC)c(O)c3CN1CC2 [Scoulerine],−1.209,–
CN(C)[C@@H]1C(O)=C(C(N)=O)C(=O)[C@@]2(O)C(O)=C3C(=O)c4c(O)ccc(Cl)c4[C@@](C)(O)[C@H]3C[C@@H]12 [Chlortetracycline hydrochloride],–,0.02534
Cc1c(N)c(=O)n(-c2ccccc2)n1C [Ampyrone],–,0.4205
[H]/N=C(/N)N/C(=N/[H])NCCc1ccccc1 [Phenformin hydrochloride],–,0.9109
O=C1O[C@H]([C@@H](O)CO)C(O)=C1O [Ascorbic acid],–,−0.7233
CC(=O)Nc1nnc(S(N)(=O)=O)s1 [Acetazolamide],–,0.8639
NS(=O)(=O)c1cc(C(=O)O)cc(N2CCCC2)c1Oc1ccccc1 [Piretanide],–,−0.9376
CCN(CC)C(=S)SSC(=S)N(CC)CC [Disulfiram],–,−1.291
O=[N+]([O-])c1cc([As](=O)(O)O)ccc1O [Roxarsone],−0.751,–
Fc1ccc(C(c2ccc(F)cc2)N2CCN(C/C=C/c3ccccc3)CC2)cc1 [Flunarizine dihydrochloride],–,−1.898
COc1ccc(CCN2CCC(Nc3nc4ccccc4n3Cc3ccc(F)cc3)CC2)cc1 [Astemizole],–,−1.866

Compound,z.score.t,z.score.t [1]
COc1ccc(C(=O)c2ccccc2O)c(O)c1 [Dioxybenzone],–,−0.2359
Clc1ccc(C(Cn2ccnc2)OCc2c(Cl)cccc2Cl)c(Cl)c1 (stereo not shown) [Isoconazole],–,−1.91
O=C(Nc1ccccc1)OCC(CN1CCCCC1)OC(=O)Nc1ccccc1 (stereo not shown) [Diperodon hydrochloride],–,−0.7776
COC(=O)C1=C(C)NC(C)=C(C(=O)OCCN(C)Cc2ccccc2)C1c1cccc([N+](=O)[O-])c1 (stereo not shown) [Nicardipine hydrochloride],–,0.2189
CC(=O)Nc1ccc(O)cc1 [Acetaminophen],–,−0.3023
Clc1ccc(Cn2c(CN3CCCC3)nc3ccccc32)cc1 [Clemizole hydrochloride],–,0.7789
Cytisine (−),−0.1641,–
Cl.OC1CCCCC1N1CCC(c2ccccc2)CC1 (stereo not drawn) [L(−)-vesamicol hydrochloride],0.6964,–
CC[N+]1(C)[C@@H]2CC[C@H]1CC(OC(=O)[C@@H]1CC[C@@](C(=O)OC3C[C@H]4CC[C@@H](C3)[N+]4(C)CC)(c3ccccc3)c3ccccc31)C2.[Cl-].[Cl-] (stereo partly drawn) [beta-Belladonnine dichloroethylate],1.872,–
C=CC[N@@+]12CC[C@@]34c5ccccc5N5/C=C6/[C@H]7C[C@H]8[C@@]9(CC[N@@+]8(CC=C)C/C7=C/CO)c7ccccc7N(/C=C(/[C@@H](C[C@@H]31)/C(=C\CO)C2)[C@H]54)[C@@H]69.[Cl-].[Cl-] [Alcuronium chloride],−0.8925,–
"COc1ccc2c(c1OC)CN1CCc3cc4c(cc3C1C2)OCO4 (stereo not shown) [(d,l)-Tetrahydroberberine]",2.041,–
CCCCOc1ccc(CC(=O)NO)cc1 [Bufexamac],–,−0.6623
CC(C)NCC(O)COc1cccc2ccccc12 (stereo not shown) [Propranolol hydrochloride],–,−1.412
"CN(Cc1cnc2nc(N)nc(N)c2n1)c1ccc(C(=O)N[C@@H](CCC(=O)O)C(=O)O)cc1 (racemic) [Amethopterin (R,S)]",–,0.3845
c1cnc(N2CCN(Cc3ccc4c(c3)OCO4)CC2)nc1 [Piribedil hydrochloride],–,−1.291
